Data from patent US8765730B2 (Hoffmann-La Roche Inc, priority 2010, dated 2014).

Target: T1, human GPBAR1 receptor (Homo sapiens, UniProt Q8TDU6)
T1 construct: expressed in transfected cells
T1 sequence (Q8TDU6 1-330): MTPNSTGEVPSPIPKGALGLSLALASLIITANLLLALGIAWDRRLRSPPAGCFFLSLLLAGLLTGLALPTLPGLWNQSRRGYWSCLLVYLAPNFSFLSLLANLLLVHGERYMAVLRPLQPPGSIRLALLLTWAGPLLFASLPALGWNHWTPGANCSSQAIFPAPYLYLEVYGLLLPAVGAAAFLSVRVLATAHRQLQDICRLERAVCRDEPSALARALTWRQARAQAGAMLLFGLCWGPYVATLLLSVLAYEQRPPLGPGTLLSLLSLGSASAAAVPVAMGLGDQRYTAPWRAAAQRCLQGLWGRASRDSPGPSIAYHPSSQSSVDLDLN
Assay: functional cAMP assay in CHO-dhfr(minus) cells expressing human GPBAR1 receptors
Format: cell-based
Settings: human EC50, functional cAMP assay, 30 min at 30° C.
Summary of the method: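 Agonist cAMP read-out: stable GPBAR1 CHO-dhfr− clone, 30 min compound exposure at 30° C following 30 min IBMX (1 mM) preincubation in Krebs Ringer bicarbonate. Time-resolved energy-transfer detection gives EC50; parental CHO cells serve as counter-screen.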

Compound	EC50
Cc1cc(F)ccc1[C@H](C/C(=N\O)c1ccc(=O)n(C)c1)c1ccc(Br)cc1 (single isomer, unassigned) [Example 404, (−)-5-{3-(4-Bromo-phenyl)-3-(4-fluoro-2-methyl-phenyl)-1-[(E)-hydroxyimino]-propyl}-1-methyl-1H-pyridin-2-one]	5 nM
Cc1ccccc1[C@@H](C/C(=N\O)c1cnc(=O)n(C)c1)c1ccc(Br)cc1 [Example 501, (S,E)-5-(3-(4-Bromophenyl)-1-(hydroxyimino)-3-o-tolylpropyl)-1-methylpyrimidin-2(1H)-one]	225 nM
Cn1cc(/C(CC(c2ccc(=O)n(C)c2)c2ccccc2Cl)=N/O)ccc1=O (stereo not drawn) [Example 250, (E)-5,5′-(1-(2-Chlorophenyl)-3-(hydroxyimino)propane-1,3-diyl)bis(1-methylpyridin-2(1H)-one)]	1350 nM
Cc1cc(C(CC(c2cccc(-c3ccc(C(=O)O)nc3)c2)c2ccccc2C)=NO)ccn1 (racemic) [Example 99, 5-{3-[3-[Hydroxyimino]-3-(2-methyl-pyridin-4-yl)-1-o-tolyl-propyl]-phenyl}-pyridine-2-carboxylic acid]	5050 nM
Cc1cc(Cl)ccc1C(C/C(=N\O)c1ccc(=O)n(C)c1)c1ccc(OCCCC(=O)O)cc1 (stereo not drawn) [Example 349, 4-{4-[1-(4-Chloro-2-methyl-phenyl)-3-[(E)-hydroxyimino]-3-(1-methyl-6-oxo-1,6-dihydro-pyridin-3-yl)-propyl]-phenoxy}-butyric acid]	267 nM
Cc1cnc(F)cc1C(CC(c1ccc(-c2ccc(C(=O)O)cc2)cc1)c1ccccc1C)=NO (racemic) [Example 130, 4′-{3-(2-Fluoro-5-methyl-pyridin-4-yl)-3-[hydroxyimino]-1-o-tolyl-propyl}-biphenyl-4-carboxylic acid]	87 nM
Cc1cc(/C(C[C@H](c2ccc(C3=CCN(S(C)(=O)=O)CC3)cc2)c2ccccc2C)=N/O)ccn1 [Example 376, (R,E)-1-(2-Methylpyridin-4-yl)-3-(4-(1-(methylsulfonyl)-1,2,3,6-tetrahydropyridin-4-yl)phenyl)-3-o-tolylpropan-1-one oxime]	14 nM
Cc1ccccc1C(C/C(=N\O)c1ccc(=O)n(C)c1)c1ccc(C(=O)N(C)CCO)cc1 (stereo not drawn) [Example 209, N-(2-Hydroxy-ethyl)-4-[3-[(E)-hydroxyimino]-3-(1-methyl-6-oxo-1,6-dihydro-pyridin-3-yl)-1-o-tolyl-propyl]-N-methyl-benzamide]	443 nM
Cc1cc(/C(C[C@@H](c2ccc(-c3ccc(C(=O)O)cc3)cc2)c2ccc(F)cc2C)=N/O)ccn1 (single isomer, unassigned) [Example 398, (−)-4′-[1-(4-Fluoro-2-methyl-phenyl)-3-[(E)-hydroxyimino]-3-(2-methyl-pyridin-4-yl)-propyl]-biphenyl-4-carboxylic acid; compound with triethylamine 1:0.75]	3 nM
Cc1cc(/C(CC(c2ccc(C(=O)O)cc2)c2ccc(F)cc2F)=N/O)ccn1 (stereo not drawn) [Example 431, 4-[1-(2,4-Difluoro-phenyl)-3-[(E)-hydroxyimino]-3-(2-methyl-pyridin-4-yl)-propyl]-benzoic acid]	465 nM
CC(/C(=N\O)c1ccncc1)C(c1ccccc1)c1ccccc1 (stereo not drawn) [Example 153, (E)-2-Methyl-3,3-diphenyl-1-pyridin-4-yl-propan-1-one oxime]	151 nM
Cn1cc(/C(CC(c2ccc(C(=O)NC3COC3)c(F)c2)c2ccccc2Cl)=N/O)ccc1=O (stereo not drawn) [Example 220, (E)-4-(1-(2-Chlorophenyl)-3-(hydroxyimino)-3-(1-methyl-6-oxo-1,6-dihydropyridin-3-yl)propyl)-2-fluoro-N-(oxetan-3-yl)benzamide]	680 nM
Cc1cc(/C(C[C@H](c2ccc(-c3nnc(C4CCOCC4)o3)cc2)c2ccccc2C)=N/O)ccn1 [Example 421, ((−), E)-1-(2-Methyl-pyridin-4-yl)-3-{4-[5-(tetrahydro-pyran-4-yl)-[1,3,4]oxadiazol-2-yl]-phenyl}-3-o-tolyl-propan-1-one oxime]	30 nM
Cc1cc(/C(CC(c2ccc(C(=O)NCCN3CCS(=O)(=O)CC3)cc2)c2ccc(F)cc2F)=N/O)ccn1 (stereo not drawn) [Example 441, 4-[1-(2,4-Difluoro-phenyl)-3-[(E)-hydroxyimino]-3-(2-methyl-pyridin-4-yl)-propyl]-N-[2-(1,1-dioxo-1λ^6-thiomorpholin-4-yl)-ethyl]-benzamide]	39 nM
Cn1cc(/C(CC(c2ccc(Br)cc2)c2ccc(Cl)cc2F)=N/O)ccc1=O (stereo not drawn) [Example 237, 5-{3-(4-Bromo-phenyl)-3-(4-chloro-2-fluoro-phenyl)-1-[(E)-hydroxyimino]-propyl}-1-methyl-1H-pyridin-2-one]	25 nM
Cc1cc(/C(CC(c2ccc(C(=O)NC(C)(C)CO)cc2)c2ccc(F)cc2F)=N/O)ccn1 (stereo not drawn) [Example 435, 4-[1-(2,4-Difluoro-phenyl)-3-[(E)-hydroxyimino]-3-(2-methyl-pyridin-4-yl)-propyl]-N-(2-hydroxy-1,1-dimethyl-ethyl)-benzamide]	66 nM
Cc1cc(F)ccc1C(C/C(=N\O)c1ccc(=O)n(C)c1)c1ccc(-c2ccc(C(=O)NCC(=O)O)cc2)cc1 (stereo not drawn) [Example 258, ({4′-[1-(4-Fluoro-2-methyl-phenyl)-3-[(E)-hydroxyimino]-3-(1-methyl-6-oxo-1,6-dihydro-pyridin-3-yl)-propyl]-biphenyl-4-carbonyl}-amino)-acetic acid]	10 nM
Cc1cc(/C(C[C@H](c2ccc(C3CCN(C(=O)OC(C)(C)C)CC3)cc2)c2ccc(Cl)cc2C)=N/O)ccn1 [Example 387, (R,E)-tert-Butyl 4-(4-(1-(4-chloro-2-methylphenyl)-3-(hydroxyimino)-3-(2-methylpyridin-4-yl)propyl)phenyl)piperidine-1-carboxylate]	371 nM
Cc1ccccc1C(C/C(=N\O)c1cnccn1)c1ccc(Br)cc1 (stereo not drawn) [Example 156, (E)-3-(4-Bromo-phenyl)-1-pyrazin-2-yl-3-o-tolyl-propan-1-one oxime]	6140 nM
Cc1ccccc1[C@H](C/C(=N\O)c1ccc(=O)n(C)c1)c1ccc(N2CCC(C(=O)O)CC2)cc1 [Example 497, Sodium (R,E)-1-(4-(3-(Hydroxyimino)-3-(1-methyl-6-oxo-1,6-dihydropyridin-3-yl)-1-o-tolylpropyl)phenyl)piperidine-4-carboxylate]	41 nM
Cc1cc(/C(CC(c2ccc(-c3ccc(C(=O)O)cc3)cc2)c2ccc(Cl)cc2C)=N/O)ccn1 (single isomer, unassigned) [Example 396, (−)-4′-[1-(4-Chloro-2-methyl-phenyl)-3-[(E)-hydroxyimino]-3-(2-methyl-pyridin-4-yl)-propyl]-biphenyl-4-carboxylic acid; compound with triethylamine 1:0.7]	29 nM
CCC(CC(=NO)c1ccncc1)c1cccc(Br)c1 (racemic) [Example 13, 3-(3-Bromo-phenyl)-1-pyridin-4-yl-pentan-1-one oxime]	173 nM
Cc1ccccc1[C@H](C/C(=N\O)c1ccc(=O)n(C)c1)c1ccc(C2CCN(S(C)(=O)=O)CC2)cc1 [Example 509, (R,E)-5-(1-(Hydroxyimino)-3-(4-(1-(methylsulfonyl)piperidin-4-yl)phenyl)-3-o-tolylpropyl)-1-methylpyridin-2(1H)-one]	99 nM
Cc1cc(/C(CC(c2ccc(-c3c[nH]c(=O)[nH]c3=O)cc2)c2ccc(Cl)cc2F)=N/O)ccn1 (stereo not drawn) [Example 458, 5-{4-[1-(4-Chloro-2-fluoro-phenyl)-3-[(E)-hydroxyimino]-3-(2-methyl-pyridin-4-yl)-propyl]-phenyl}-1H-pyrimidine-2,4-dione]	22 nM
Cn1cc(/C(CC(c2ccc(C(=O)NCCS(C)(=O)=O)cc2)c2ccc(Cl)cc2F)=N/O)ccc1=O (stereo not drawn) [Example 313, 4-[1-(4-Chloro-2-fluoro-phenyl)-3-[(E)-hydroxyimino]-3-(1-methyl-6-oxo-1,6-dihydro-pyridin-3-yl)-propyl]-N-(2-methanesulfonyl-ethyl)-benzamide]	266 nM
CCOC(=O)C1CCN(c2ccc([C@@H](C/C(=N\O)c3ccnc(C)c3)c3ccccc3C)cc2)CC1 [Example 265, 1-{4-[(R)-3-[(E)-Hydroxyimino]-3-(2-methyl-pyridin-4-yl)-1-o-tolyl-propyl]-phenyl}-piperidine-4-carboxylic acid ethyl ester]	12 nM
Cc1cc(/C(CC(c2ccc(-c3ccc(C(=O)O)cc3)cc2)c2ccc(F)cc2C)=N/O)ccn1 (stereo not drawn) [Example 141, (E)-4′-(1-(4-Fluoro-2-methylphenyl)-3-(hydroxyimino)-3-(2-methylpyridin-4-yl)propyl)biphenyl-4-carboxylic acid]	8 nM
Cc1cc(/C(C[C@@H](c2ccc(-c3ccc(C(=O)O)c(F)c3)cc2)c2ccc(Cl)cc2F)=N/O)ccn1 (single isomer, unassigned) [Example 449, 4′-[(+)-1-(4-Chloro-2-fluoro-phenyl)-3-[(E)-hydroxyimino]-3-(2-methyl-pyridin-4-yl)-propyl]-3-fluoro-biphenyl-4-carboxylic acid]	9 nM
Cc1cc(/C(CC(c2ccc(-c3ccc(C(=O)O)cc3C)cc2)c2ccc(Cl)cc2F)=N/O)ccn1 (stereo not drawn) [Example 456, 4′-[1-(4-Chloro-2-fluoro-phenyl)-3-[(E)-hydroxyimino]-3-(2-methyl-pyridin-4-yl)-propyl]-2-methyl-biphenyl-4-carboxylic acid]	16 nM
Cc1cc(Cl)ccc1C(C/C(=N\O)c1ccc(=O)n(C)c1)c1ccc(C(=O)O)cc1 (stereo not drawn) [Example 361, 4-[1-(4-Chloro-2-methyl-phenyl)-3-[(E)-hydroxyimino]-3-(1-methyl-6-oxo-1,6-dihydro-pyridin-3-yl)-propyl]-benzoic acid]	2300 nM
